Assay results reported in ChEMBL document CHEMBL1159173, “Investigation of side-chain sar, formulation and injection site toleration of pyrazolo[3,4-f]quinoline derivatives: a potent series of in vivo active immunostimulants” (Bioorg Med Chem Lett, 1993).

How the values were obtained:
[1] = Solubility was determined; format: physicochemical
[2] = species on record: Mus musculus; experiment: Minimum effective dose for immunostimulant activity in mice was determined; format: functional; settings: read-out: MED
[3] = species on record: Mus musculus; experiment: Minimum effective dose for immunostimulant activity in mice was determined; Toxic; format: functional, organism-based

Compound CCCCOc1ccc(Nc2ccnc3ccc4c[nH]nc4c23)cc1 has a solubility [1] greater than 6000 µg/mL and a minimal effective dose [2] of 3.13 mg/kg.

In the case of Cc1cc(Nc2ccc(Cl)cc2)c2c(ccc3c[nH]nc32)n1, the solubility [1] is reported as less than 6000 µg/mL and the minimal effective dose [2] is reported as 1.85 mg/kg.

For c1cc(NC2CCCCC2)c2c(ccc3c[nH]nc32)n1, the solubility [1] was no less than 25000 µg/mL and the MED [3] was “Toxic”.

In the case of CCCc1ccc(Nc2cc(C)nc3ccc4c[nH]nc4c23)cc1, the solubility [1] is reported as greater than 6000 µg/mL and the minimal effective dose [2] is reported as 6.25 mg/kg.

Compound c1cc(Nc2ccc(OCC3CCCCC3)cc2)c2c(ccc3c[nH]nc32)n1 has a solubility [1] of less than 6000 µg/mL and a minimal effective dose [2] of 0.62 mg/kg.

Compound Cc1cc(Nc2ccc(O)cc2)c2c(ccc3c[nH]nc32)n1 has a minimal effective dose [2] of 16.7 mg/kg.

For CCc1ccc(Nc2cc(C)nc3ccc4c[nH]nc4c23)cc1, the solubility [1] was greater than 6000 µg/mL and the minimal effective dose [2] was 12.5 mg/kg.

In the case of COc1ccc(Nc2cc(C)nc3ccc4c[nH]nc4c23)cc1, the minimal effective dose [2] is reported as 16.7 mg/kg.

For Cc1cc(Nc2ccc(OCC3CCCCC3)cc2)c2c(ccc3c[nH]nc32)n1, the solubility [1] was less than 6000 µg/mL and the minimal effective dose [2] was 0.62 mg/kg.

Compound Cc1cc(NC2CCCCC2)c2c(ccc3c[nH]nc32)n1 has a solubility [1] of no less than 25000 µg/mL and a minimal effective dose [2] of 1.85 mg/kg.

Work on Cc1ccc(Nc2cc(C)nc3ccc4c[nH]nc4c23)cc1 yielded a solubility [1] of less than 6000 µg/mL and a minimal effective dose [2] of 6.25 mg/kg.

CCCCc1ccc(Nc2ccnc3ccc4c[nH]nc4c23)cc1 showed a solubility [1] greater than 6000 µg/mL and a minimal effective dose [2] of 6.25 mg/kg.

For Cc1cc(Nc2ccc(OCc3ccccc3)cc2)c2c(ccc3c[nH]nc32)n1, the solubility [1] was less than 6000 µg/mL and the minimal effective dose [2] was 0.62 mg/kg.

CCCCOc1ccc(Nc2cc(C)nc3ccc4c[nH]nc4c23)cc1 showed a solubility [1] of less than 6000 µg/mL and a minimal effective dose [2] of 1.85 mg/kg.

In the case of Cc1cc(Nc2cccnc2)c2c(ccc3c[nH]nc32)n1, the minimal effective dose [2] is reported as greater than 50 mg/kg.

Compound Cc1cc(Nc2ccc(SCC(=O)O)cc2)c2c(ccc3c[nH]nc32)n1 has a minimal effective dose [2] greater than 50 mg/kg.

Clc1ccc(Nc2ccnc3ccc4c[nH]nc4c23)cc1 gave a solubility [1] of less than 6000 µg/mL and a minimal effective dose [2] of 12.5 mg/kg.
